# Measurements published in patent US20060160879A1, “Indoles useful in the treatment of inflammation” (priority 2003, published 2006).
# Target: T1, mPGES-1 (Homo sapiens, UniProt O14684)
# T1 construct: made in house; host or cells: E. coli (membrane fraction)
# T1 sequence (O14684 1-152): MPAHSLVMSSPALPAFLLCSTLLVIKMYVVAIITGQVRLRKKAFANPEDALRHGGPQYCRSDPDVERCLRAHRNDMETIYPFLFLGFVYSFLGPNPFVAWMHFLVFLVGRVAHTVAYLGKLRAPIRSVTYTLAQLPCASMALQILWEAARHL
# Test: mPGES-1 assay: conversion of PGH2 to PGE2, PGE2 analysed by HPLC
# Type: biochemical
# Set-up: dose or concentration left out as unconfirmed
# Protocol: In the assay mPGES-1 catalyses the reaction where the substrate PGH2 is converted to PGE2. mPGES-1 is expressed in E. coli and the membrane fraction is dissolved in 20 mM NaPi-buffer pH 8.0 and stored at −80° C. In the assay mPGES-1 is dissolved in 0.1M KPi-buffer pH 7.35 with 2.5 mM glutathione. The stop solution consists of H2O/MeCN (7/3), containing FeCl2 (25 mM) and HCl (0.15 M). The assay is performed at room temperature in 96-well plates. Analysis of the amount of PGE2 is performed with reversed phase HPLC (Waters 2795 equipped with a 3.9×150 mm C18 column). The mobile phase consists of H2O/MeCN (7/3), containing TFA (0.056%), and absorbance is measured at 195 nm with a Waters 2487 UV-detector.
# The following is added chronologically to each well: • 1. 100 μL mPGES-1 in KPi-buffer with glutathione. Total protein concentration: 0.02 mg/mL. • 2. 1 μL inhibitor in DMSO. Incubation of the plate at room temperature for 25 minutes. • 3. 4 μL of a 0.25 mM PGH2 solution. Incubation of the plate at room temperature for 60 seconds. • 4. 100 μL stop solution. • 180 μL per sample is analyzed with HPLC.
row,inhibition of mPGES-1 [%],SMILES
1,96,"CC(C)(C)c1ccc(-c2ccc3c(-c4ccccc4)c(C(=O)O)n(Cc4cccc(Oc5ccccc5)c4)c3c2)cc1 [Example 1, 6-(4-tert-Butylphenyl)-1-(3-phenoxybenzyl)-3-phenylindole-2-carboxylic acid]"
2,100,"CC(C)(C)c1ccc(-c2ccc3c(-c4cccs4)c(C(=O)O)n(Cc4cccc(Oc5ccccc5)c4)c3c2)cc1 [Example 2, 6-(4-tert-Butylphenyl)-1-(3-phenoxybenzyl)-3-(2-thienyl)indole-2-carboxylic acid]"
3,85,"O=C(O)c1c(-c2ccccc2)c2cc(-c3ccc4c(c3)OCO4)ccc2n1CCCc1ccccc1 [Example 3, 5-(3,4-Methylenedioxyphenyl)-3-phenyl-1-(3-phenylpropyl)indole-2-carboxylic acid]"
4,81,"O=C(O)c1c(-c2ccccc2)c2cc(-c3cccnc3)ccc2n1CCCc1ccccc1 [Example 4, 3-Phenyl-1-(3-phenylpropyl)-5-(3-pyridyl)indole-2-carboxylic acid]"
5,93,"O=C(O)c1cccc(-c2c(C(=O)O)n(Cc3cccc([N+](=O)[O-])c3)c3cc(-c4ccc(OCc5ccccc5)cc4)ccc23)c1 [Example 5, 6-(4-Benzyloxyphenyl)-3-(3-carboxyphenyl)-1-(3-nitrobenzyl)indole-2-carboxylic acid]"
6,100,"O=C(O)c1cccc(-c2c(C(=O)O)n(Cc3cccc(C(F)(F)F)c3)c3cccc(-c4ccccc4)c23)c1 [Example 6, 3-(3-Carboxyphenyl)-4-phenyl-1-[3-(trifluoromethyl)benzyl]indole-2-carboxylic acid]"
